This data set relates to Mus musculus. Description: Sedative activity in Mus musculus Swiss albino (mouse) at 10 mg/kg, ip after 1 hr relative to control. Also noted: dose 10 mg/kg, route intraperitoneal. The following applies: in vivo. Format: organism-based.

For `NC(=O)c1c(N2CCN(CCO)CC2)nc2sc3cc(Cl)ccc3n2c1=O`, the Activity amounted to 30.37%.

Compound `CN(C)CCNc1nc2sc3cc(Cl)ccc3n2c(=O)c1C(N)=O` returned an Activity of 25.97%.

`CCN1CCN(c2nc3sc4cc(Cl)ccc4n3c(=O)c2C(N)=O)CC1` returned an Activity of 22.66%.

As for `NC(=O)c1c(N2CCCC2)nc2sc3cc(Cl)ccc3n2c1=O`, the Activity is given as 38.27%.

`CN1CCN(c2nc3sc4cc(Cl)ccc4n3c(=O)c2C(N)=O)CC1` came in with an Activity of 32.92%.

For the compound `NC(=O)c1c(N2CCCCC2)nc2sc3cc(Cl)ccc3n2c1=O`, the Activity worked out at 20.51%.

The compound `CN(C)CCNc1nc2sc3ccccc3n2c(=O)c1C(N)=O` came in with an Activity of 36.25%.

Consider `NC(=O)c1c(N2CCOCC2)nc2sc3cc(Cl)ccc3n2c1=O`, for which the Activity came out at 23.17%.

`NC(=O)c1c(N2CCN(CCO)CC2)nc2sc3ccccc3n2c1=O` displayed an Activity of 36.47%.

For the compound `CN1CCN(c2nc3sc4ccccc4n3c(=O)c2C(N)=O)CC1`, the Activity was determined as 35.21%.

The compound `CCN1CCN(c2nc3sc4ccccc4n3c(=O)c2C(N)=O)CC1` displayed an Activity of 26.43%.

In turn, `NC(=O)c1c(N2CCCCC2)nc2sc3ccccc3n2c1=O` came in with an Activity of 23.61%.

Compound `NC(=O)c1c(N2CCCC2)nc2sc3ccccc3n2c1=O` came in with an Activity of 33.33%.

For `NC(=O)c1c(N2CCOCC2)nc2sc3ccccc3n2c1=O`, the Activity amounted to 24.32%.

As to `CN(C)CCC(c1ccc(Cl)cc1)c1ccccn1.O=C(O)/C=C\C(=O)O` (stereo not given) [CHLORPHENIRAMINE MALEATE], the Activity is reported as 69.01%.

The record behind these values is ChEMBL document CHEMBL3044837, “Synthesis and pharmacological investigation of novel 2-substituted-3-carboxamido-4H-pyrimidobenzothiazole derivatives as a new class of H1-antihistaminic agent” (Med Chem Res, 2013).
